The numbers were not newly measured in patent publication US7850997B2, “Dietary compositions and methods of enhancing lean body mass and exercise performance” (priority 2007, dated 2010), which cites them from elsewhere.

Each structure is given as a SMILES string.

The conditions of series [1]: compared with placebo; patients.
The conditions of series [2]: oral arginine 0.5 g/10 kg for one week, versus placebo; primary or precapillary secondary pulmonary hypertension.
For series [3] the following is noted: after arginine 6 g/day for 10 days; 7 healthy males.
For series [4] the following is noted: 6 g oral L-arginine for 3 days vs placebo; 25 patients with stable coronary artery disease.
For series [5] the following is noted: oral L-arginine 6 g for 3 days; 22 patients with stable angina pectoris and healed myocardial infarction.

As to `N=C(N)NCCCC(N)C(=O)O` (stereo not shown) [arginine, 2-amino-5-guanidinovaleric acid], in series [1], the “forearm blood flow during forearm exercise” value is reported as “significantly increased”. In series [2], the “mean pulmonary arterial pressure” value is recorded as “significantly decreased” and the pulmonary vascular resistance entry is listed as “significantly decreased”. Further, in series [3], the “flow-mediated vasodilation (FMV) after 4 and 6 h after oral fat load” value is on record as “normalized”; the “flow-mediated vasodilation (FMV) at 2 h after oral fat load” value is recorded as “significantly decreased”. Moreover, the exercise duration entry in series [4] is reported as “significantly increased”. Besides, the exercise capacity result in series [5] is reported as “increased”.
